Reference: patent publication US20230040770A1, “HETEROCYCLIC COMPOUND AND USE THEREOF” (TAKEDA PHARMACEUTICAL COMPANY LIMITED, priority 2019, published 2023)

These molecules were tested against T1, human orexin type 2 receptor (Homo sapiens, UniProt O43614) (assay: Measurement of orexin type 2 receptor agonist activity (calcium indicator fluorescence, CHO cells forcibly expressing human OX2 receptor)). Details: compound at 3 μM; 0% = DMSO, 100% = orexin A (human) 10 nM.
T1 construct: expressed in transfected cells
T1 sequence (O43614 1-444): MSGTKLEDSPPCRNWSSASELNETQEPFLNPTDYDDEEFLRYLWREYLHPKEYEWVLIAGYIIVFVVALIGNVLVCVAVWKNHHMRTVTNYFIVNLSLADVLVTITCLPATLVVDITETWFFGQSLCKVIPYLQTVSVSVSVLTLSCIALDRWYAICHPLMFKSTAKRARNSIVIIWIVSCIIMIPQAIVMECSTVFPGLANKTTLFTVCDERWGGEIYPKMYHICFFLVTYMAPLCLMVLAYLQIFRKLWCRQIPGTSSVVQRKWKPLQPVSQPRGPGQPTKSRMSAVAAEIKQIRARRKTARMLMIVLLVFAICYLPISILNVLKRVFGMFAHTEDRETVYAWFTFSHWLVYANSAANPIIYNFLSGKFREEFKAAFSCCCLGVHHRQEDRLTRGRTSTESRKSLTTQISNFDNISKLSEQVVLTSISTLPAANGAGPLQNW
Type: cell-based
How it was run: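 Agonist response normalised between vehicle (0%) and orexin A at 10 nM final (100%), from kinetic Fluo-4 calcium signals recorded for about 2 min after compound addition. Cells: stable human OX2R CHO clone, dye-loaded 30 min at 37 °C plus 30 min at room temperature.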

Row | Compound | OX2R agonist activity (3 μM, %) [%]
1 | CCS(=O)(=O)N[C@H]1[C@@H](F)CN(C(=O)C2CC2)[C@H]1Cc1cccc(-c2cccc(Cl)c2)c1F [Example 516, N-[(2S,3R,4S)-2-[(3′-chloro-2-fluoro[1,1′-biphenyl]-3-yl)methyl]-1-(cyclopropanecarbonyl)-4-fluoropyrrolidin-3-yl]ethanesulfonamide] | 102
2 | CCS(=O)(=O)N[C@@H]1[C@H](Cc2cccc(-c3ccc(F)c(C)c3)c2F)N(C(=O)C2CCO2)CC1(F)F (stereo partly drawn) [Example 472, N-[(2S,3R)-2-[(2,4′-difluoro-3′-methyl[1,1′-biphenyl]-3-yl)methyl]-4,4-difluoro-1-(oxetane-2-carbonyl)pyrrolidin-3-yl]ethanesulfonamide] | 95
3 | CCS(=O)(=O)N[C@@H]1[C@H](Cc2cccc(-c3ccc(F)c(C)c3)c2F)N(C(=O)C2CCO2)CC1(F)F (stereo partly drawn) [Example 476, N-[(2S,3R)-2-[(2,4′-difluoro-3′-methyl[1,1′-biphenyl]-3-yl)methyl]-4,4-difluoro-1-(oxetane-2-carbonyl)pyrrolidin-3-yl]ethanesulfonamide] | 100
4 | CCS(=O)(=O)N[C@@H]1[C@H](Cc2cccc(-c3cccc(C)c3F)c2F)N(C(=O)C2(O)CCC2)CC1(F)F [Example 276, N-[(2S,3R)-2-[(2,2′-difluoro-3′-methyl[1,1′-biphenyl]-3-yl)methyl]-4,4-difluoro-1-(1-hydroxycyclobutane-1-carbonyl)pyrrolidin-3-yl]ethanesulfonamide] | 88
5 | CCS(=O)(=O)N[C@@H]1[C@H](Cc2cccc(-c3ccccc3)c2F)N(C(=O)C2CCO2)CC1(F)F (stereo partly drawn) [Example 46, N-[(2S,3R)-4,4-difluoro-2-[(2-fluoro[1,1′-biphenyl]-3-yl)methyl]-1-(oxetane-2-carbonyl)pyrrolidin-3-yl]ethanesulfonamide] | 102
6 | CCS(=O)(=O)N[C@@H]1[C@H](Cc2cccc(-c3cccc(C)c3)c2F)N(C(=O)N(C)C)CC1(F)F [Example 284, (2S,3R)-3-[(ethanesulfonyl)amino]-4,4-difluoro-2-[(2-fluoro-3′-methyl[1,1′-biphenyl]-3-yl)methyl]-N,N-dimethylpyrrolidine-1-carboxamide] | 92
7 | CS(=O)(=O)N[C@@H]1[C@H](Cc2cccc(-c3cccc(F)c3)c2F)N(C(=O)C2(O)CCC2)CC1(F)F [Example 13, N-[(2S,3R)-2-[(2,3′-difluoro[1,1′-biphenyl]-3-yl)methyl]-4,4-difluoro-1-(1-hydroxycyclobutane-1-carbonyl)pyrrolidin-3-yl]methanesulfonamide] | 93
8 | CCS(=O)(=O)N[C@H]1[C@@H](F)CN(C(=O)C2CC2)[C@H]1Cc1cccc(-c2cccc(C)c2)c1F [Example 514, N-{(2S,3R,4S)-1-(cyclopropanecarbonyl)-4-fluoro-2-[(2-fluoro-3′-methyl[1,1′-biphenyl]-3-yl)methyl]pyrrolidin-3-yl}ethanesulfonamide] | 95
9 | CCS(=O)(=O)N[C@H]1[C@@H](F)CN(C(=O)C2CC2)[C@H]1Cc1cccc(-c2cc(F)cc(Cl)c2)c1F [Example 517, N-[(2S,3R,4S)-2-[(3′-chloro-2,5′-difluoro[1,1′-biphenyl]-3-yl)methyl]-1-(cyclopropanecarbonyl)-4-fluoropyrrolidin-3-yl]ethanesulfonamide] | 100
10 | Cc1cccc(-c2cccc(C[C@H]3[C@@H](NS(=O)(=O)C4CC4)C(F)(F)CN3C(=O)N3CCC3)c2F)c1 [Example 426, N-{(2S,3R)-1-(azetidine-1-carbonyl)-4,4-difluoro-2-[(2-fluoro-3′-methyl[1,1′-biphenyl]-3-yl)methyl]pyrrolidin-3-yl}cyclopropanesulfonamide] | 90
11 | CN(C)S(=O)(=O)N[C@@H]1[C@H](Cc2cccc(-c3cccc(F)c3)c2F)N(C(=O)N2CCC2)CC1(F)F [Example 547, N′-{(2S,3R)-1-(azetidine-1-carbonyl)-2-[(2,3′-difluoro[1,1′-biphenyl]-3-yl)methyl]-4,4-difluoropyrrolidin-3-yl}-N,N-dimethylsulfuric diamide] | 98
12 | CCS(=O)(=O)N[C@@H]1[C@H](Cc2cccc(-c3cccc(Cl)c3)c2F)N(C(=O)C2CCO2)CC1(F)F (stereo partly drawn) [Example 267, N-[(2S,3R)-2-[(3′-chloro-2-fluoro[1,1′-biphenyl]-3-yl)methyl]-4,4-difluoro-1-(oxetane-2-carbonyl)pyrrolidin-3-yl]ethanesulfonamide] | 92
13 | CCS(=O)(=O)N[C@H]1[C@@H](F)CN(C(=O)C(C)C)[C@H]1Cc1cccc(-c2cccc(Cl)c2)c1F [Example 298, N-[(2S,3R,4S)-2-[(3′-chloro-2-fluoro[1,1′-biphenyl]-3-yl)methyl]-4-fluoro-1-(2-methylpropanoyl)pyrrolidin-3-yl]ethanesulfonamide] | 96
14 | CCS(=O)(=O)N[C@H]1[C@@H](F)CN(C(=O)C2CCO2)[C@H]1Cc1cccc(-c2cccc(C)c2)c1F (stereo partly drawn) [Example 498, N-[(2S,3R,4S)-4-fluoro-2-[(2-fluoro-3′-methyl[1,1′-biphenyl]-3-yl)methyl]-1-(oxetane-2-carbonyl)pyrrolidin-3-yl]ethanesulfonamide] | 99
15 | CN(C)S(=O)(=O)N[C@@H]1[C@H](Cc2cccc(-c3ccccc3)c2F)N(C(=O)C2(O)CCC2)CC1(F)F [Example 145, N′-[(2S,3R)-4,4-difluoro-2-[(2-fluoro[1,1′-biphenyl]-3-yl)methyl]-1-(1-hydroxycyclobutane-1-carbonyl)pyrrolidin-3-yl]-N,N-dimethylsulfuric diamide] | 99
16 | Cc1cccc(-c2cccc(C[C@H]3[C@@H](NS(=O)(=O)N(C)C)C(F)(F)CN3C(=O)N(C)C)c2F)c1F [Example 531, (2S,3R)-2-[(2,2′-difluoro-3′-methyl[1,1′-biphenyl]-3-yl)methyl]-3-[(dimethylsulfamoyl)amino]-4,4-difluoro-N,N-dimethylpyrrolidine-1-carboxamide] | 95
17 | CCS(=O)(=O)N[C@@H]1[C@H](Cc2cccc(-c3cccc(F)c3)c2)N(C(=O)C2CCO2)CC1(F)F (stereo partly drawn) [Example 52, N-[(2S,3R)-4,4-difluoro-2-[(3′-fluoro[1,1′-biphenyl]-3-yl)methyl]-1-(oxetane-2-carbonyl)pyrrolidin-3-yl]ethanesulfonamide] | 100
18 | CCS(=O)(=O)N[C@@H]1[C@H](Cc2cccc(-c3cccc(C(F)F)c3)c2F)N(C(=O)C2CC(F)C2)CC1(F)F (stereo partly drawn) [Example 506, N-[(2S,3R)-2-{[3′-(difluoromethyl)-2-fluoro[1,1′-biphenyl]-3-yl]methyl}-4,4-difluoro-1-(3-fluorocyclobutane-1-carobnyl)pyrrolidin-3-yl]ethanesulfonamide] | 100
19 | O=C(N1C[C@H](F)[C@H](NS(=O)(=O)C2CC2)[C@@H]1Cc1cccc(-c2cccc(F)c2)c1F)C12CC(C1)C2 [Example 384, N-{(2S,3R,4S)-1-(bicyclo[1.1.1]pentane-1-carbonyl)-2-[(2,3′-difluoro[1,1′-biphenyl]-3-yl)methyl]-4-fluoropyrrolidin-3-yl}cyclopropanesulfonamide] | 98
